Experiment: Storage stability of retinol formulations at 40° C. (retinol content after storage)
Format: physicochemical
Details: storage at 40° C.
Protocol: To determine the stability of these formulations, they were stored (at 40° C.) for 2 weeks and 12 weeks. And the loss of retinol was measure (the initial value was 100%).

Compound: CC1=C(/C=C/C(C)=C/C=C/C(C)=C/CO)C(C)(C)CCC1 [retinol, Retinol]
- cis/trans ratio of the retinol during storage (in words): stable
